The source made the active and inactive calls. The calls are words filed in the database; no cut-off is given here.

These results are taken from ChEMBL document CHEMBL5370549, “Optimization and evaluation of pyridinyl vinyl sulfones as Nrf2 activator for the antioxidant and anti-inflammatory effects” (Eur J Med Chem, 2023).

Data set [1] deals with T1, Nuclear factor erythroid 2-related factor 2 (Homo sapiens, UniProt Q16236).
T1 sequence (Q16236 whole entry): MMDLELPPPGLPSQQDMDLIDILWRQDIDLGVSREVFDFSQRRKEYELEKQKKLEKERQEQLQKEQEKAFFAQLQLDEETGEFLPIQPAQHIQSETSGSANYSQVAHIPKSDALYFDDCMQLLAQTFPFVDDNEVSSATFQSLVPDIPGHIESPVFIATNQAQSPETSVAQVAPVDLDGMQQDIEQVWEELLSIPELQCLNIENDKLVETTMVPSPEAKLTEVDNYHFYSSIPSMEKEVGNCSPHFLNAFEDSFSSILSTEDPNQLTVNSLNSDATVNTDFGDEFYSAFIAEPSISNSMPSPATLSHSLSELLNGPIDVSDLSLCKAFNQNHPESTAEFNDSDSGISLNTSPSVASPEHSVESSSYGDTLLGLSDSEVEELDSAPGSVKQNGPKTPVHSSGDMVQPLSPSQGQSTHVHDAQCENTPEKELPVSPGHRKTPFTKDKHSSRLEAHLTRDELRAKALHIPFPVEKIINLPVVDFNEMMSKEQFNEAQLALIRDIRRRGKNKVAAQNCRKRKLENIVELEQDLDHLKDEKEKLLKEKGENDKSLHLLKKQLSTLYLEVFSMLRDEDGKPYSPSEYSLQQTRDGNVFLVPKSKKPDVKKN
In words: Activation of Nrf2 in human U2OS cells co-expressing Keap1 assessed as induction of Nrf2 nuclear translocation incubated for 6 hrs by PathHunter chemiluminescence based analysis. The class given is cell-based.

Data set [2] in a line: Toxicity against C57BL/6N mouse at 1000 mg/kg, po administered as single dose. The class given is organism-based. To be noted: in vivo.
Another data set relates to Mus musculus. Put plainly: Antiinflammatory activity against LPS-induced neuroinflammation C57BL/6N mouse model assessed as reduction of glial cell reactivity by measuring reduction in GFAP expression in hippocampus CA1 region at 20 mg/kg/day, po administered for 3 days followed by LPS administration for 7 days by immunofluorescence staining based analysis. Type of data set: functional, organism-based. To be noted: time 10.0 day.

What is called EC50 is the concentration giving half of the maximal effect. Regarding `COc1cccnc1S(=O)(=O)/C=C/c1ncccc1Cl`, the concentration for a half-maximal effect (EC50) in data set [1] was 37 nM. The Activity entry in data set [2] is recorded as “Non-Toxic”. For the same compound, in the data set on Mus musculus, the outcome was Active.
